Measurements from publication PMC10716264 (Frontiers in Medicine, 2023).
Read-outs that look alike come from different tables or passages of the source.

Columns and labels:
[1] = molecular target: SARS-CoV-2 RdRp complex (nsp12-nsp7-nsp8) (Severe acute respiratory syndrome coronavirus 2, UniProt P0DTD1); assay type: biochemical
[2] = molecular target: SARS-CoV-2 3CLpro (Severe acute respiratory syndrome coronavirus 2, UniProt P0DTD1); test: biochemical
[3] = system: influenza A/California/07/09 (H1N1) strain; test: microbe, parasite or virus in culture; assay type: cell-based; conditions: read-out: EC50 (effective 50% concentration), MDCK cells
[4] = design: method as in earlier work; conditions: co-administration with ritonavir; cited from earlier work
[5] = system: SARS-CoV-2 (2019-nCoV-WIV04); test: microbe, parasite or virus in culture; assay type: cell-based; conditions: read-out: EC50 against SARS-CoV-2 virus
[6] = system: COVID-19; design: method as in PMID 32568613; conditions: unvaccinated symptomatic adults, Nirmatrelvir-based therapy; cited from earlier work
[7] = Severe acute respiratory syndrome coronavirus 2, Vero C1008, 24 h

In the case of `O=c1c(O)c(-c2cc(O)c(O)c(O)c2)oc2cc(O)cc(O)c12` [Myricetin], the “formation of the RdRp-RNA complex” value ([1]; 250 μM) is reported as “completely blocked” and the “inhibition of primer elongation” value ([1]; gel assay, compared with Rutan) is reported as “showed inhibitory activity in higher concentrations”.

Compound `O=C(OC[C@H]1O[C@@H](OC(=O)c2cc(O)c(O)c(O)c2)[C@H](OC(=O)c2cc(O)c(O)c(OC(=O)c3cc(O)c(O)c(O)c3)c2)[C@@H](OC(=O)c2cc(O)c(O)c(OC(=O)c3cc(O)c(O)c(O)c3)c2)[C@@H]1OC(=O)c1cc(O)c(O)c(OC(=O)c2cc(O)c(O)c(O)c2)c1)c1cc(O)c(O)c(O)c1` [R-8, 2,3,4-bis-O-galloyl-1,6-di-O-galloyl-β-D-glucose] has an IC50 ([2]; Rutan and components (Figure 4)) of 1.34 µM.

In the case of `NC(=O)c1nc(F)c[nH]c1=O` [Favipiravir], the EC50 [3] is reported as 24 µM.

For `Cc1cccc(C)c1OCC(=O)N[C@@H](Cc1ccccc1)[C@@H](O)C[C@H](Cc1ccccc1)NC(=O)[C@H](C(C)C)N1CCCNC1=O` [Lopinavir], the “increase of area under the plasma concentration-time curve” value [4] is given as “more than 100 times”.

In the case of `CCC(CC)COC(=O)[C@H](C)N[P@](=O)(OC[C@H]1O[C@@](C#N)(c2ccc3c(N)ncnn23)[C@H](O)[C@@H]1O)Oc1ccccc1` [Remdesivir], the EC50 [5, 7] is reported as 2 µM.

In the case of `CC(C)(C)[C@H](NC(=O)C(F)(F)F)C(=O)N1C[C@H]2[C@@H]([C@H]1C(=O)N[C@H](C#N)C[C@@H]1CCNC1=O)C2(C)C` [Nirmatrelvir], the “reduction of the risk of severe complications following COVID-19 infection” value [6] is listed as 89%.

Work on “2,4-bis-O-galloyl-1,3,6-tri-O-galloyl-β-D-glucose [R-7]” yielded an EC50 [5] of 17.5 µM and an IC50 [2] of 9.84 µM.

In the case of `O=C(OC[C@H]1O[C@@H](OC(=O)c2cc(O)c(O)c(O)c2)[C@H](OC(=O)c2cc(O)c(O)c(O)c2)[C@@H](OC(=O)c2cc(O)c(O)c(OC(=O)c3cc(O)c(O)c(O)c3)c2)[C@@H]1OC(=O)c1cc(O)c(O)c(O)c1)c1cc(O)c(O)c(O)c1` [R-6, 3-bis-O-galloyl-1,2,4,6-tetra-O-galloyl-β-D-glucose], the EC50 ([5]; Severe acute respiratory syndrome coronavirus 2, Vero C1008, Vero E6 cells, MOI 0.01, 24 h post-infection, viral copies by qRT-PCR) is reported as 5.95 µM and the IC50 [2] is reported as 9.92 µM.

Work on `O=C(OC[C@H]1O[C@@H](OC(=O)c2cc(O)c(O)c(O)c2)[C@H](OC(=O)c2cc(O)c(O)c(O)c2)[C@@H](OC(=O)c2cc(O)c(O)c(O)c2)[C@@H]1OC(=O)c1cc(O)c(O)c(O)c1)c1cc(O)c(O)c(O)c1` [R-5, 1,2,3,4,6-penta-O-galloyl-β-D-glucose] yielded an EC50 [5, 7] of 7.49 µM.
